Experiment [1] deals with T1, cholesterol esterase (CE) (Homo sapiens, UniProt P19835).
T1 sequence (P19835 21-753): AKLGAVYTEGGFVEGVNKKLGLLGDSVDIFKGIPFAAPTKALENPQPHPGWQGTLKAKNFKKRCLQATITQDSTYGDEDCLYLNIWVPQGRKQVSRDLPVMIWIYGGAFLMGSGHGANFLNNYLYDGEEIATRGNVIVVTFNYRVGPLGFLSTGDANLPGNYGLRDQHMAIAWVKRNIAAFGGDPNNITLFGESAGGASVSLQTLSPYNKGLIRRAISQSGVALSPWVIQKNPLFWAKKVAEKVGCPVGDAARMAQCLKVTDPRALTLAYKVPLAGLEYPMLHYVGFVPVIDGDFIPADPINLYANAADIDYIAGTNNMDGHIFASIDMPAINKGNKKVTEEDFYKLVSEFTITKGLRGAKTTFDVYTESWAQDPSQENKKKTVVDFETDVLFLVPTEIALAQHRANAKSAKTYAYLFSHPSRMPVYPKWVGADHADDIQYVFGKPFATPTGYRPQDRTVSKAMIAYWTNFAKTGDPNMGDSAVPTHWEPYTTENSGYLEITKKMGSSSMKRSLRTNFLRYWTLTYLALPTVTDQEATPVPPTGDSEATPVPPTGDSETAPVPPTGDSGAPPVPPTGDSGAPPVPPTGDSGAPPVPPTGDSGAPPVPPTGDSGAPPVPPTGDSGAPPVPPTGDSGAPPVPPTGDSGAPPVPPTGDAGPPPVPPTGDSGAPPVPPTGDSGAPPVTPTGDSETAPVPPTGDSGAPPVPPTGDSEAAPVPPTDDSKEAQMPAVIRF
Put plainly: Kinetic inhibition studies of CE with substrate p-nitrophenylbutyrate, Dixon plots. The conditions noted are these: for inhibition of CE (in words): kinetic inhibition studies.

The next experiment addresses chymotrypsin (Bos taurus, UniProt P00766). As to the kind of experiment: Inhibition of chymotrypsin. The format is biochemical. From the text: Thus, the compounds of the present invention which have a saturated ring as part of the 3-substituent provide tremendous selectivity when compared to compounds where the 3-substituent includes an aromatic ring.
For experiment [2] the following is noted: rats, single intragastric dose simultaneous with feeding of cholesterol ester; cited from earlier work.
Another experiment deals with T2, lumenal CE (Rattus norvegicus, UniProt P07882).
T2 construct: from tissue; host or cells: rat intestinal lumen (in vivo)
T2 sequence (P07882 21-612): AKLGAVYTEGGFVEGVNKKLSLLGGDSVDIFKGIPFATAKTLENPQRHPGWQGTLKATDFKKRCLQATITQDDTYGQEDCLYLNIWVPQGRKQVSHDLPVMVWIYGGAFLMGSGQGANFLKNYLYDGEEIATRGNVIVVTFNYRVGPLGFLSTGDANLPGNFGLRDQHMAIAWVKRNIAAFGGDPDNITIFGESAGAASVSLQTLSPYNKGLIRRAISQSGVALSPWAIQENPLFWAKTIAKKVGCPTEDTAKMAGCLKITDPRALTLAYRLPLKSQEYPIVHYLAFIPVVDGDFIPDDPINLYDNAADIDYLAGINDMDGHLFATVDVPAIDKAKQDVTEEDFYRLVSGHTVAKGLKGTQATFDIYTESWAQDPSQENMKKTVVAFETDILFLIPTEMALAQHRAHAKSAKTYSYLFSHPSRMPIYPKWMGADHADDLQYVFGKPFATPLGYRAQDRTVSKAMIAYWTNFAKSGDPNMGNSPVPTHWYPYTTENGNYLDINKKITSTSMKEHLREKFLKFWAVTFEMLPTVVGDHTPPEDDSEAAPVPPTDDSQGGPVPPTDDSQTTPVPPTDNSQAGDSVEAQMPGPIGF
Conditions: rats, single intragastric dose simultaneous with feeding of cholesterol ester; cited from earlier work.

The target of the next experiment is T3, CE (Homo sapiens, UniProt P19835).
T3 sequence (P19835 21-753): T1 sequence (P19835 21-753)
Conditions: in vitro; cited from earlier work.

Take `O=c1oc(Cl)ccc1CCCC1CCCCC1` [Example 4]: the “inhibition of CE (in words)” value in experiment [1] is reported as “potent inhibitors of CE”.

Take `O=c1oc(Cl)ccc1CCC1CCCCC1` [Example 3]: the Ki at chymotrypsin is 50 µM; in experiment [1] (calculated Ki, apparent Ki from Dixon plots, equals one half of the concentration of CE used in the assay) it was 0.03 µM.

`O=c1oc(Cl)ccc1Cc1ccccc1` [3-benzyl-6-chloropyrone]: the “drop in cholesterol absorption” value in experiment [2] is 60%. Also, the “inactivation of lumenal CE activity” value at lumenal CE was 63%. Besides, the “half life of CE inactivation” value at CE was 1.67 min.

As for `O=c1oc(Cl)ccc1CC1CCCCC1` [Example 2], the “inhibition of CE (in words)” value in experiment [1] is “potent inhibitors of CE”.
